Values joined by “and” are separate entries in the source; they are usually repeats but may differ in a detail not shown here. Identical values can stand only once.
Columns and labels:
[1] = tested on: Bifidobacterium bifidum ATCC #29521; test: Growth in MRS broth + L-cysteine fortified with MSM
[2] = tested on: normal flora found in the milks; test: Standard plate counts of non-probiotic microorganisms in Acidophilus milks; assay type: cell-based
[3] = tested on: Escherichia coli; test: USP AET, MSM in TSB; assay type: cell-based; design: key: Colonies too numerous to count (TNTC); details: 48 hrs
Text: (§1) Compounds or formulated products having antimicrobial activity may be evaluated with the United States Pharmacopeia (USP) Antimicrobial Effectiveness Test (AET). The AET involves the addition of specified microorganisms (Candida albicans, Aspergillus niger, Escherichia coli, Pseudomonas aeruginosa and Staphylococcus aureus) directly to a test product at relatively high concentrations to simulate contamination. The product is held for one month, with weekly analysis of microorganism levels. Depending on the route of administration of a product, satisfaction of the AET generally requires a 1 to 3 log reduction in bacteria from initial levels, which should occur in one to two weeks, with no further increase in bacteria after two weeks. For yeast and mold, no increase from the initial inoculums level is permitted.
(§2) Inoculations were made using Candida albicans, Aspergillus niger, Escherichia coli, Pseudomonas aeruginosa and Staphylococcus aureus. Tryptic soy broth (TSB) was used as the culturing media. […] The inoculated media was held for one month, during which time the added microorganisms were enumerated weekly to determine if they were growing, dying off, or remaining near the initial inoculation level. Data points were measured in triplicate at 48 hours, 3, 5, 14, 20, 28, and 30 days. The acceptance criteria for antimicrobial effectiveness are described in detail in the USP, herein incorporated by reference.

[4] = tested on: Pseudomonas aeruginosa; test: USP AET, MSM in TSB; assay type: cell-based; design: key: Colonies too numerous to count (TNTC); details: 48 hrs
Text: as §1, §2

[5] = tested on: Streptococcus Pneumonia (#10341); test: Bacterial viability by bioluminescent ATP assay
[6] = tested on: Staphylococcus aureus; test: USP <51> AET in cosmetic cream/composition; assay type: cell-based; details: for Log Reduction from Initial Microorganism Inoculum: 14, 28 Days
[7] = tested on: Acidophilus plus Bifidus milk microorganisms; test: Growth in Acidophilus plus Bifidus milk fortified with MSM; details: A/B milk […] MSM
Description: Then samples were evaluated every 7 days for a total of 28 days. […] The milks were bought at a local store. The Acidophilus milk was low fat (Darigold). The Acidophilus plus Bifidus milk contained 2% milkfat (Lucerne). […] The working solutions were held at 4° C. during the study.

[8] = tested on: E. coli; test: Log growth in MSM-lactose broth with or without DMSO; assay type: cell-based, Escherichia coli; details: 24 hours
Description: Lactose broth, free of both NaCl and of proteins, was used as the media in this experiment. […] Each media composition was initially inoculated with 6.75×10^6 cfu/mL of E. coli. Cultures were incubated at 25° C. for seven days. Aliquots of each culture were taken after 24 hours of culturing and at the end of seven days in culture. Aliquots were serially diluted (with Modified Letheen diluent) and plated on trypto-soy agar plates.

Methylsulfonylmethane [MSM]
Log Growth of Bifidobacteruim bifidum in Media Fortified with MSM ([1]; 5% MSM, Hr 40): 11.78 logs | Log Growth of Bifidobacteruim bifidum in Media Fortified with MSM ([1]; 5% MSM, Hr 48): 10.70 logs | Log Growth of Bifidobacteruim bifidum in Media Fortified with MSM ([1]; 5% MSM, Hr 56): 10.59 logs | Log Growth of Bifidobacteruim bifidum in Media Fortified with MSM ([1]; 5% MSM, Hr 64): 14.32 logs | Log Growth of Bifidobacteruim bifidum in Media Fortified with MSM ([1]; 5% MSM, Hr 72): 8.65 logs | Log Growth of Bifidobacteruim bifidum in Media Fortified with MSM ([1]; 5% MSM, Hr 80): 12.20 logs | Log Growth of Bifidobacteruim bifidum in Media Fortified with MSM ([1]; 5% MSM, Hr 88): 12.31 logs | Log Growth of Bifidobacteruim bifidum in Media Fortified with MSM ([1]; 5% MSM, Hr 96): 9.60 logs | Log Growth of Bifidobacteruim bifidum in Media Fortified with MSM ([1]; […] MSM, Hr 96): <6.00 logs | maximum reached before the control ([1]; all MSM concentrations): 16 h | growth of normal flora (standard plate counts) ([2]; 5.0% MSM, throughout the study): did not allow any significant growth | Growth of non-probiotic microorganisms in Acidophilus Milk ([2]; A/B milk […] MSM, Day 0): 370 cfu per mL | Growth of non-probiotic microorganisms in Acidophilus Milk ([2]; A/B milk […] MSM, Day 3): 480 cfu per mL | Growth of non-probiotic microorganisms in Acidophilus Milk ([2]; A/B milk […] MSM, Day 7): 570 cfu per mL | Growth of non-probiotic microorganisms in Acidophilus Milk ([2]; A/B milk […] MSM, Day 14): 1460 cfu per mL | Growth of non-probiotic microorganisms in Acidophilus Milk ([2]; A/B milk […] MSM, Day 21): 3500 cfu per mL | Growth of non-probiotic microorganisms in Acidophilus Milk ([2]; A/B milk […] MSM, Day 28): 110000 cfu per mL | Growth of non-probiotic microorganisms in Acidophilus Milk ([2]; Acidophilus milk 0.50% MSM, Day 0, duplicates): 20 cfu per mL and 30 cfu per mL | Growth of non-probiotic microorganisms in Acidophilus Milk ([2]; Acidophilus milk 0.50% MSM, Day 3, duplicates): 10 cfu per mL | Growth of non-probiotic microorganisms in Acidophilus Milk ([2]; Acidophilus milk 0.50% MSM, Day 7, duplicates): 10 cfu per mL | Growth of non-probiotic microorganisms in Acidophilus Milk ([2]; Acidophilus milk 0.50% MSM, Day 14, duplicates): 20 cfu per mL | Growth of non-probiotic microorganisms in Acidophilus Milk ([2]; Acidophilus milk 0.50% MSM, Day 21, duplicates): 20 cfu per mL and 40 cfu per mL | Growth of non-probiotic microorganisms in Acidophilus Milk ([2]; Acidophilus milk 5% MSM, Day 0, duplicates): 10 cfu per mL and 20 cfu per mL | Growth of non-probiotic microorganisms in Acidophilus Milk ([2]; Acidophilus milk 5% MSM, Day 3, duplicates): 10 cfu per mL | Growth of non-probiotic microorganisms in Acidophilus Milk ([2]; Acidophilus milk 5% MSM, Day 7, duplicates): 10 cfu per mL and 20 cfu per mL | Growth of non-probiotic microorganisms in Acidophilus Milk ([2]; Acidophilus milk 5% MSM, Day 14, duplicates): 20 cfu per mL and 10 cfu per mL | Growth of non-probiotic microorganisms in Acidophilus Milk ([2]; Acidophilus milk 5% MSM, Day 21, duplicates): 20 cfu per mL and 10 cfu per mL | Growth of non-probiotic microorganisms in Acidophilus Milk ([2]; Acidophilus milk 5% MSM, Day 28, duplicates): 10 cfu per mL | Growth of non-probiotic microorganisms in Acidophilus Milk ([2]; Acidophilus milk […] MSM, Day 0, duplicates): 10 cfu per mL | Growth of non-probiotic microorganisms in Acidophilus Milk ([2]; Acidophilus milk […] MSM, Day 14, duplicates): <10 cfu per mL | AET microorganism count ([3]; 1:100 dilution of MSM): TNTC | AET microorganism count ([3]; 1:1000 dilution of MSM): TNTC | AET microorganism count ([4]; 1:100 dilution of MSM): TNTC | AET microorganism count ([4]; 1:1000 dilution of MSM): TNTC | IC50 [5]: 15.97% | reduced viability by ([5]; 5% MSM alone): approximately 5% | AET microorganism count ([6]; 10% MSM in cosmetic cream without preservative, 48 hrs-28 days): <10 | Log Reduction from Initial Microorganism Inoculum ([6]; 10% MSM in preservative-free jojoba cream): 5.6 log | Log Reduction from Initial Microorganism Inoculum ([6]; 10% MSM, Composition #1): 5.7 log | Log Reduction from Initial Microorganism Inoculum ([6]; 10% MSM, Composition #2): 5.7 log | Log Growth of Lactobacillus acidophilus in Milk fortified with MSM ([7]; Day 7): 10.42 logs | Log Growth of Lactobacillus acidophilus in Milk fortified with MSM ([7]; Day 21): 5.37 logs | Log Growth of Lactobacillus acidophilus in Milk fortified with MSM ([7]; Day 28): 3.94 logs | Log Growth of Lactobacillus acidophilus in Milk fortified with MSM ([7]; hour 0): 6.41 logs | Log Growth of Lactobacillus acidophilus in Milk fortified with MSM ([7]; hour 8): 8.67 logs | Log Growth of Lactobacillus acidophilus in Milk fortified with MSM ([7]; hour 24): 9.16 logs | Log Growth of Lactobacillus acidophilus in Milk fortified with MSM ([7]; hour 32): 8.87 logs | Log Growth of Lactobacillus acidophilus in Milk fortified with MSM ([7]; hour 48): 8.3 logs | Log Growth of Lactobacillus acidophilus in Milk fortified with MSM ([7]; hour 56): 8.56 logs | Log Growth of Lactobacillus acidophilus in Milk fortified with MSM ([7]; hour 72): 8.45 logs | Log Growth of Lactobacillus acidophilus in Milk fortified with MSM ([7]; hour 80): 9.82 logs | Log Growth of Lactobacillus acidophilus in Milk fortified with MSM ([7]; hour 96): 8.61 logs | Log Growth of Lactobacillus acidophilus in Milk fortified with MSM ([7]; hour 104): 8.92 logs | reduced bacterial growth ([8]; 11% MSM): about 2.2 logs | reduced bacterial growth ([8]; 16% MSM): about 1 log
